Source: PMC10743429, “Anti-Inflammatory Effects of Alphitolic Acid Isolated from Agrimonia coreana Nakai Extracts Are Mediated via the Inhibition of ICRAC Activity in T Cells” (International Journal of Molecular Sciences, 2023)

Molecular target: T1, ORAI1 (Homo sapiens, UniProt Q96D31)
T1 construct: ORAI1 transiently co-transfected with STIM1 in HEK293T cells; with STIM1
Experiment: patch-clamp of ICRAC in HEK293T cells co-expressing ORAI1 and STIM1
Assay type: cell-based

T1 sequence (Q96D31 whole entry): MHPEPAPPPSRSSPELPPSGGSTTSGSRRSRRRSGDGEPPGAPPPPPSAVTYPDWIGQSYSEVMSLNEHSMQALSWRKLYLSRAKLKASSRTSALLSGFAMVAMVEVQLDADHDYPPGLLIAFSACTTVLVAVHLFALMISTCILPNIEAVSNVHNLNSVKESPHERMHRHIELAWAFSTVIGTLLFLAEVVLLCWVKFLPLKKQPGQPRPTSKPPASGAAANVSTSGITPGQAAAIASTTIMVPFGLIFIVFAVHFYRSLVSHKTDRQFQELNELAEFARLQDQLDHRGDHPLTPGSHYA
T1 sequence (Q13586 23-685 partner): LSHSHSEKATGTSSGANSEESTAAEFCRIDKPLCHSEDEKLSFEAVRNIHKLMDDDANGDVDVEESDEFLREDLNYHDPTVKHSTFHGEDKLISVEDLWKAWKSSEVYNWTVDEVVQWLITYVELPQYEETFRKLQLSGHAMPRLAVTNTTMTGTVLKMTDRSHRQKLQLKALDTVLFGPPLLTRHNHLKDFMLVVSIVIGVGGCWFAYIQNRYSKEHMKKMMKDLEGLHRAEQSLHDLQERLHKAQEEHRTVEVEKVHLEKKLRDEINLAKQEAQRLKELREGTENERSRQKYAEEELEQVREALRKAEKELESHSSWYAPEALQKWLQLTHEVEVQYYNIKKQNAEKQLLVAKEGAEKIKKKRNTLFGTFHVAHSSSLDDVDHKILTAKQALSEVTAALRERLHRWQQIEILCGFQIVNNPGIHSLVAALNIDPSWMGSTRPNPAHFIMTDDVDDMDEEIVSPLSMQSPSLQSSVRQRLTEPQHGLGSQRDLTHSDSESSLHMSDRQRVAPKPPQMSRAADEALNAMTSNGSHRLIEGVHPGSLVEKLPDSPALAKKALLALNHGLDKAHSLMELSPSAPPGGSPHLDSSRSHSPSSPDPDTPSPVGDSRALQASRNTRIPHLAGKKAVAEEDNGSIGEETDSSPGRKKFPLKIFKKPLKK

Work on `C=C(C)[C@@H]1CC[C@]2(C(=O)O)CC[C@]3(C)[C@H](CC[C@@H]4[C@@]5(C)C[C@@H](O)[C@H](O)C(C)(C)[C@@H]5CC[C@]43C)[C@@H]12` [compound 1, alphitolic acid] yielded an IC50 of 17.5 ± 2.46 µM.
